Source: patent publication US8686050B2, “Diglycidic ether derivative therapeutics and methods for their use” (British Columbia Cancer Agency Branch, priority 2008, dated 2014)
“Also recorded” adds a separate entry of the source. Structures can show the parent of a compound that is named as a salt.

What was measured:
Type in all cases: cell-based
[1] = target: T1, VP16-ARTAD and Gal4-ARLBD (Homo sapiens, UniProt P10275); test: N/C interaction, mammalian two-hybrid in CV1 cells; conditions: R1881, 24 hr, 185-9-2 10 μg/ml, bicalutamide 10 μM
T1 construct: amino acids 1-565 of the AR NTD fused to VP16 at the N-terminus; the LBD of the AR (amino acids 628-919; Gal4-ARLBD; the C terminus); expressed in transfected cells; host or cells: CV1
T1 sequence (P10275 1-565): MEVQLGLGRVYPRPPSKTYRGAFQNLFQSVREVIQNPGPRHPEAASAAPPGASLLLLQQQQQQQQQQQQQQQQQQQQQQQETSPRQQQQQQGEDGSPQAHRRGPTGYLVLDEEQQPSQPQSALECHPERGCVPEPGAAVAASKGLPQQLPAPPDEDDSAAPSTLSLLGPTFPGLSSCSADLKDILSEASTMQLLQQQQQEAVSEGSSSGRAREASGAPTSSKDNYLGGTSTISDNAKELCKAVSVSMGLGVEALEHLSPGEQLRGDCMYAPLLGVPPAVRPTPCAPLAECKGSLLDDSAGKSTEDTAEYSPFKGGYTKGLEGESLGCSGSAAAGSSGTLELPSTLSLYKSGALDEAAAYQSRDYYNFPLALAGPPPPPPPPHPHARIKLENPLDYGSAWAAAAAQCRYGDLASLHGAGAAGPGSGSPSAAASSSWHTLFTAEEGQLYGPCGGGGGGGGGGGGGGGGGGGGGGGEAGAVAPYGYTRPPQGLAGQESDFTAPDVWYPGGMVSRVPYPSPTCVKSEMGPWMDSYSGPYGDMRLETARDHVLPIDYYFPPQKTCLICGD

[2] = target: T2, glucocorticoid receptor (GR) (Homo sapiens, UniProt P04150); test: GRE-luciferase reporter, steroid receptor specificity; conditions: LNCaP cells transfected with GR, steroid 10 nM; 185-9-2 5 μg/ml
T2 construct: Cells were co-transfected with expression plasmids for full-length hGR, PRβ and the relative reporter; expressed in transfected cells; host or cells: LNCaP
T2 sequence (P04150 1-777): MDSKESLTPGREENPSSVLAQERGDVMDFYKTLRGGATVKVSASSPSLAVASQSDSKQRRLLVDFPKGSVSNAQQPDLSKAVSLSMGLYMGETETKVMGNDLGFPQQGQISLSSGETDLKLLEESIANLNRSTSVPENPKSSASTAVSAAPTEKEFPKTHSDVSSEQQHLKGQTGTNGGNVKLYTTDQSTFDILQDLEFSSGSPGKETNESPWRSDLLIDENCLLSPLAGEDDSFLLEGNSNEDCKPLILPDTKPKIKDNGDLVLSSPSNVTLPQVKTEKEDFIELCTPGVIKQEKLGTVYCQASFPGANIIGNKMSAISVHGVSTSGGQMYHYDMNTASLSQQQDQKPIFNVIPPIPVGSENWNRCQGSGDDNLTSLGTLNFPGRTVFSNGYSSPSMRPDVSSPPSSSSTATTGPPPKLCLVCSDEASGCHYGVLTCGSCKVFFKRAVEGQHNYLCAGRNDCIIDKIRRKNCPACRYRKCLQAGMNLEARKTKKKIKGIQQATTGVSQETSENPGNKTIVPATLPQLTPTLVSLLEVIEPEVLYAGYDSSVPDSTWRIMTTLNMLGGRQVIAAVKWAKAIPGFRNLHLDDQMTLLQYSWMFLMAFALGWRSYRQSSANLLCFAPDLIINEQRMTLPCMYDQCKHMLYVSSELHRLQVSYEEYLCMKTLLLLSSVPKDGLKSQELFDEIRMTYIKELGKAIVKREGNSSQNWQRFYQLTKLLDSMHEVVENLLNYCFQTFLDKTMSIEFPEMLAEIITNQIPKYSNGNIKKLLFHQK
Procedure: (§1) Sequence similarities of amino acids in the AR with related human steroid receptors PR and glucocorticoid receptor (GR) are significant in some domains such as the DBD. The AR NTD shares less than 15% homology with the PR and GR, but these receptors interact with some of the same proteins (eg., SRC-1 and CBP). […] Cells were co-transfected with expression plasmids for full-length hGR, PRβ and the relative reporter (i.e., pGR-Luc or PRE-E1b-Luc reporters). Cells were then treated with ethanol vehicle, dexamethasone (GR), 4-pregnene-3,20 dione (progesterone) (PR) followed by measurement of luciferase activity. […] Some antiandrogens currently used in the clinic have progestational and glucocorticoidal activities. In adult males, the role of the PR activity is unclear.

[3] = target: T3, progesterone receptor (PR) (Homo sapiens, UniProt P06401); test: PRE-luciferase reporter, steroid receptor specificity; conditions: LNCaP cells transfected with PR, steroid 10 nM; 185-9-2 5 μg/ml, bicalutamide 10 μM
T3 construct: Cells were co-transfected with expression plasmids for full-length hGR, PRβ and the relative reporter; expressed in transfected cells; host or cells: LNCaP
T3 sequence (P06401 1-933): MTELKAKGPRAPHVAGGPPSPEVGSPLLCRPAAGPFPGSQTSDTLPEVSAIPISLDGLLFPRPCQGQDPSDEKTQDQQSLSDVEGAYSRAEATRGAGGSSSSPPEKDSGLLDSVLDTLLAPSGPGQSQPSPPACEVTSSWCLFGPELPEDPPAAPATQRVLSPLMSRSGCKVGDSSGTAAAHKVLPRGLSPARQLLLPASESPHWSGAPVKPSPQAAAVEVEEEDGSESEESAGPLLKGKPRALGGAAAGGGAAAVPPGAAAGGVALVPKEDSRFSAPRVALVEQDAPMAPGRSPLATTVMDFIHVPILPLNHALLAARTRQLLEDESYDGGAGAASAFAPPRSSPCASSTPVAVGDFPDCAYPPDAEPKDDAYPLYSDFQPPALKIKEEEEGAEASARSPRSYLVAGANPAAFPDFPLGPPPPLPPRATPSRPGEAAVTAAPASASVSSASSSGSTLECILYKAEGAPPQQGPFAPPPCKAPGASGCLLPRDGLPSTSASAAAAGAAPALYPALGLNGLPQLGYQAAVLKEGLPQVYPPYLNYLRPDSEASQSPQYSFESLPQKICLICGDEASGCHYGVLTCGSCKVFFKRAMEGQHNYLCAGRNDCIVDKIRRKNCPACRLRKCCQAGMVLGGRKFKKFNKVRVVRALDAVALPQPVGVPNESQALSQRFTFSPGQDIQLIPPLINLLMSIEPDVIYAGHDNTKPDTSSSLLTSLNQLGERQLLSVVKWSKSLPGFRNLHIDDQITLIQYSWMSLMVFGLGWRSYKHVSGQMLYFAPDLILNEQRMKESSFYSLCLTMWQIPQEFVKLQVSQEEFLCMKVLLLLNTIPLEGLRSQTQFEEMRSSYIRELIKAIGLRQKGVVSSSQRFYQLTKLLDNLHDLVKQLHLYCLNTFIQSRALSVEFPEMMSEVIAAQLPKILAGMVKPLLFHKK
Procedure: as §1

CC(C)(c1ccc(OCC(O)CO)cc1)c1ccc(OCC(O)CCl)cc1 (stereo not drawn) [185-9-2, BADGE.HCL.H2O]
androgen-stimulated N/C interaction [1]: inhibit androgen-stimulated N/C interaction
GRE-luciferase activity in response to ligand [2]: did NOT inhibit; also recorded: does NOT inhibit
PRE-luciferase activity in response to ligand [3]: did NOT inhibit; also recorded: does NOT inhibit
